# Assay results taken from patent US4129737A, “Process for the preparation of an 8-alkyl-5-oxo-5,8-dihydro-pyrido(2,3-d)pyrimidine-6-carboxylic acid” (priority 1972, dated 1978).
# Where two headings read alike, the source gives them in different places.
# Columns and labels:
# Assay type in all cases: cell-based
# Klebs. pneumoniae = assay: Minimum inhibitory concentration by agar dilution, Klebs. pneumoniae; conditions: Klebsiella pneumoniae, 37° C., 18 hours, read-out: minimum inhibitory concentration (M.I.C.)
# Description: (§1) (a) Trypticase soya medium (T.S.A.), which is very suitable for culturing the majority of microorganisms; it has the following composition:
# (§2) (b) Ordinarily nutrient agar (N.A.), which is less rich in nutrients, corresponds to the following formulation: […]
# (§3) Table I gives the minimum inhibitory concentrations (expressed in μg/cm^3) for the various microorganisms tested on each medium.
# (§4) The products were tested on three Gram positive microorganisms (1 to 3) […] and on 10 Gram negative microorganisms (4 to 13).
# (§5) Table (II) gives the minimum inhibitory concentrations of the compounds of Examples XII to XVI, determined on the agar medium, N.A., and expressed in μg/cm^3.
# Esch. Coli 95 = assay: Minimum inhibitory concentration by agar dilution, Esch. Coli 95; conditions: Escherichia coli
# Description: as §1, §2, §3, §4, §5
# [1] = tested on: Gram-negative microorganisms; assay: In vitro anti-microbial activity on agar media, overall; conditions: in vitro
# Description: as §4
# Staphylococcus 209 P = assay: Minimum inhibitory concentration by agar dilution, Staphylococcus 209 P; conditions: Staphylococcus
# Description: as §1, §2, §3, §4, §5
# Pr. mirabilis = assay: Minimum inhibitory concentration by agar dilution, Pr. mirabilis; conditions: Proteus mirabilis
# Description: as §1, §2, §3, §4, §5
# B. subtilis = assay: Minimum inhibitory concentration by agar dilution, B. subtilis; conditions: Bacillus subtilis, 37° C., 18 hours, read-out: minimum inhibitory concentration (M.I.C.)
# Description: as §1, §2, §3, §4, §5
# Pr. morganii = assay: Minimum inhibitory concentration by agar dilution, Pr. morganii; conditions: Morganella morganii
# Description: as §1, §2, §3, §4, §5
# Sh. sonnei = assay: Minimum inhibitory concentration by agar dilution, Sh. sonnei; conditions: Shigella sonnei, 37° C., 18 hours, read-out: minimum inhibitory concentration (M.I.C.)
# Description: as §1, §2, §3, §4, §5
# B. pyocyaneus A22 = assay: Minimum inhibitory concentration by agar dilution, B. pyocyaneus A22; conditions: Pseudomonas aeruginosa, A22, 37° C., 18 hours, read-out: minimum inhibitory concentration (M.I.C.)
# Description: as §1, §2, §3, §4, §5
# Bord. bronchiseptica = assay: Minimum inhibitory concentration by agar dilution, Bord. bronchiseptica; conditions: Bordetella bronchiseptica, 37° C., 18 hours, read-out: minimum inhibitory concentration (M.I.C.)
# Description: as §1, §2, §3, §4, §5
# Streptococcus = assay: Minimum inhibitory concentration by agar dilution, Streptococcus Group A
# Description: as §1, §2, §3, §4, §5
# Salm. typhi = assay: Minimum inhibitory concentration by agar dilution, Salm. typhi; conditions: Salmonella enterica, 18 h
# Description: as §1, §2, §3, §4, §5
# B. pyocyaneus TUR = assay: Minimum inhibitory concentration by agar dilution, B. pyocyaneus TUR; conditions: Pseudomonas aeruginosa, 37° C., 18 hours
# Description: as §1, §2, §3, §4
# Pr. vulgaris = assay: Minimum inhibitory concentration by agar dilution, Pr. vulgaris; conditions: Proteus vulgaris
# Description: as §1, §2, §3, §4, §5
# [2] = N.A. (nutrient agar, pH 6.8), Table I
# [3] = T.S.A. (trypticase soya medium, pH 7.3)
# [4] = N.A. (nutrient agar, pH 6.8), 37° C., 18 hours, Table I, read-out: minimum inhibitory concentration (M.I.C.)
# [5] = T.S.A. (trypticase soya medium, pH 7.3), 37° C., 18 hours, read-out: minimum inhibitory concentration (M.I.C.)
# [6] = pH 6.8, read-out: minimum inhibitory concentration (M.I.C.)
# [7] = pH 7.3, read-out: minimum inhibitory concentration (M.I.C.)
# [8] = T.S.A. (trypticase soya medium, pH 7.3), read-out: minimum inhibitory concentration (M.I.C.)
# [9] = 18 h, pH 7.3, read-out: minimum inhibitory concentration (M.I.C.)
Structure (SMILES),MIC (Klebs. pneumoniae; [2]),MIC (Klebs. pneumoniae; [3]),MIC (Esch. Coli 95; [4]),activity against Gram-negative microorganisms [1],MIC (Staphylococcus 209 P; [4]),MIC (Pr. mirabilis; [4]),MIC (B. subtilis; [2]),MIC (B. subtilis; [3]),MIC (Pr. morganii; [4]),MIC (Sh. sonnei; [2]),MIC (Sh. sonnei; [3]),MIC (B. pyocyaneus A22; [2]),MIC (B. pyocyaneus A22; [3]),MIC (Bord. bronchiseptica; [2]),MIC (Bord. bronchiseptica; [3]),MIC (Streptococcus; [4]),MIC (Salm. typhi; [6]),MIC (Salm. typhi; [7]),MIC (B. pyocyaneus TUR; [2]),MIC (B. pyocyaneus TUR; [8]),also measured
"CCn1cc(C(=O)O)c(=O)c2cnc(N3CCN(C)CC3)nc21 [Example V, 2-(4'-Methyl-piperazino)-5-oxo-8-ethyl-5,8-dihydro-pyrido(2,3-d)pyrimidine-6-carboxylic acid]",0.4 µg/mL,6.2 µg/mL,0.8 µg/mL,particularly active against Gram-negative microorganisms,3.1 µg/mL,6.2 µg/mL,1.6 µg/mL,6.2 µg/mL,0.8 µg/mL,0.8 µg/mL,1.6 µg/mL,12.5 µg/mL,100 µg/mL,50 µg/mL,100 µg/mL,25 µg/mL,3.1 µg/mL,3.1 µg/mL,50 µg/mL,100 µg/mL,MIC (Esch. Coli 95; [5]): 6.2 µg/mL; MIC (Staphylococcus 209 P; [5]): 100 µg/mL; MIC (Pr. mirabilis; [5]): 6.2 µg/mL; MIC (Pr. morganii; [5]): 1.6 µg/mL; MIC (Streptococcus; [5]): 6.2 µg/mL; MIC (Pr. vulgaris; [4]): 1.6 µg/mL; MIC (Pr. vulgaris; [5]): 6.2 µg/mL
"CN1CCN(c2ncc3c(=O)c(C(=O)O)cn(C)c3n2)CC1 [Example X, 2-(4'-Methyl-piperazino)-5-oxo-8-methyl-5,8-dihydropyrido-(2,3-d)pyrimidine-6-carboxylic acid]",6.2 µg/mL,6.2 µg/mL,1.6 µg/mL,particularly active against Gram-negative microorganisms,50 µg/mL,3.1 µg/mL,100 µg/mL,> 100 µg/mL,3.1 µg/mL,12.5 µg/mL,3.1 µg/mL,50 µg/mL,> 100 µg/mL,25 µg/mL,100 µg/mL,50 µg/mL,3.1 µg/mL,12.5 µg/mL,50 µg/mL,> 100 µg/mL,MIC (Esch. Coli 95; [5]): 6.2 µg/mL; MIC (Staphylococcus 209 P; [5]): 100 µg/mL; MIC (Pr. mirabilis; [9]): 12.5 µg/mL; MIC (Pr. morganii; [5]): 6.2 µg/mL; MIC (Streptococcus; [5]): 100 µg/mL; MIC (Pr. vulgaris; [4]): 3.1 µg/mL; MIC (Pr. vulgaris; [5]): 25 µg/mL
"CCn1cc(C(=O)O)c(=O)c2cnc(N3CCN(CCO)CC3)nc21 [Example VI, 2-(4-β-Hydroxyethyl-piperazino)-5-oxo-8-ethyl-5,8-dihydropyrido(2,3-d)pyrimidine-6-carboxylic acid]",0.4 µg/mL,1.6 µg/mL,1.6 µg/mL,particularly active against Gram-negative microorganisms,3.1 µg/mL,3.1 µg/mL,1.6 µg/mL,3.1 µg/mL,1.6 µg/mL,1.6 µg/mL,1.6 µg/mL,50 µg/mL,> 100 µg/mL,50 µg/mL,> 100 µg/mL,3.1 µg/mL,12.5 µg/mL,6.2 µg/mL,50 µg/mL,> 100 µg/mL,MIC (Esch. Coli 95; [5]): 3.1 µg/mL; MIC (Staphylococcus 209 P; [9]): 12.5 µg/mL; MIC (Pr. mirabilis; [9]): 12.5 µg/mL; MIC (Pr. morganii; [5]): 1.6 µg/mL; MIC (Streptococcus; [9]): 12.5 µg/mL; MIC (Pr. vulgaris; [4]): 50 µg/mL; MIC (Pr. vulgaris; [5]): 6.2 µg/mL
"CCn1cc(C(=O)O)c(=O)c2cnc(N3CCN(Cc4ccccc4)CC3)nc21 [Example VII, 2-(4'-Benzyl-piperazino)-5-oxo-8-ethyl-5,8-dihydropyrido(2,3-d)pyrimidine-6-carboxylic acid]",0.4 µg/mL,1.6 µg/mL,1.6 µg/mL,particularly active against Gram-negative microorganisms,0.8 µg/mL,6.2 µg/mL,0.4 µg/mL,0.8 µg/mL,3.1 µg/mL,1.6 µg/mL,12.5 µg/mL,100 µg/mL,> 100 µg/mL,3.1 µg/mL,> 100 µg/mL,0.8 µg/mL,1.6 µg/mL,12.5 µg/mL,100 µg/mL,> 100 µg/mL,"MIC (Esch. Coli 95; [9]): 12.5 µg/mL; MIC (Staphylococcus 209 P; [5]): 3.1 µg/mL; MIC (Pr. mirabilis; [5]): 100 µg/mL; MIC (Pr. morganii; [9]): 12.5 µg/mL; MIC (Streptococcus; [5]): 3.1 µg/mL; MIC (Pr. vulgaris; 18 h, pH 6.8, read-out: minimum inhibitory concentration (M.I.C.)): 12.5 µg/mL; MIC (Pr. vulgaris; [5]): 50 µg/mL"
